The subject of test [1] is colon cancer cells. The conditions noted are these: by lowering c-FLIP expression; cited from earlier work.
Test [2] relates to MAT2A. Briefly: MAT2A mRNA levels by real-time PCR in HT-29 cells. Type of test: cell-based, human. Conditions: HT-29 cells, growth factor 100 ng/ml. The protocol: (§1) HT-29 and RKO cells were obtained from the Cell Culture Core of the USC Liver Disease Research Center and grown according to instructions provided by the American Type Culture Collection (ATCC, Rockville, Md.). Prior to treatment with growth factors, SAMe or MTA, medium was changed to 0.1% FBS overnight.
RNA interference (RNAi) experiments were performed using Lipofectamine RNAiMax (Invitrogen) according to the manufacturer's instructions. Small interfering RNA (siRNA) oligonucleotides for MAT2A and scrambled siRNA were synthesized by the USC Norris Comprehensive Cancer Center Microchemical Core Laboratory, and annealed to form duplexes. Stealth RNAi for MAT2A and Stealth RNAi negative control duplexes were synthesized by Invitrogen (Carlsbad, Calif.). The following siRNA sequences were used: si-MAT2A #1, 5′-[…]-3′ (sense) and 5′-[…]-3′ (antisense); si-control with scrambled sequence (negative control siRNA having no perfect matches to known human genes), 5′-[…]dTdT-3′ (sense) and 5% […]dTdT-3′ (antisense); stealth RNAi-MAT2A #5, 5′-[…]-3′ (sense) and 5′-[…]-3′ (antisense). […]
(§2) Total RNA was isolated by the EZgeno total RNA isolation kit (Genemega, San Giego, Calif.), and subjected to reverse transcription (RT) by using M-MLV Reverse transcriptase (Invitrogen). 2 μl of RT product was subjected to quantitative real-time PCR analysis. The primers and TaqMan probes for MAT2A, MAT2β and Universal PCR Master Mix were purchased from ABI (Foster City, Calif.). Hypoxanthine phosphoribosyl-transferase 1 (HPRT1) and ubiquitin C (UBC) were used as housekeeping genes (48). The thermal profile consisted of 1 cycle at 95° C. for 15 minutes followed by 40 cycles at 95° C. for 15 seconds and at 60° C. for 1 minute. The expression of MAT2A and MAT2β was checked by normalizing the Ct of MAT2A and MAT2β to that of the control housekeeping gene (HPRT1 or UBC) (49). The delta Ct obtained was used to find the relative expression of MAT genes according to the formula: Relative expression=2·^ΔCt, where ΔCt=ΔCt of MAT genes in colon cancer or treated cells—ΔCt of MAT genes in normal colon or control cells.

Test [3] concerns HT-29 cells. Briefly: Polyamine levels in HT-29 cells. Conditions: 6 hrs, mitogen 100 ng/ml. Type of test: cell-based, human. The procedure:
as §1
(§3) Cellular SAMe and MTA levels were measured (51) and polyamine levels were determined (52).

Test [4] deals with ornithine decarboxylase (ODC). Briefly: ODC expression by real-time PCR in HT-29 cells. The conditions noted are these: 6 hrs, mitogen 100 ng/ml. Type of test: cell-based, human. For orientation: Real-time PCR tracks product formation cycle by cycle.
Test [5] deals with MAT2A. Put plainly: MAT2A mRNA levels by real-time PCR in RKO cells. Type of test: cell-based, human. The conditions noted are these: RKO cells, growth factor 100 ng/ml. The protocol: as §1
RNA interference (RNAi) experiments were performed using Lipofectamine RNAiMax (Invitrogen) according to the manufacturer's instructions. Small interfering RNA (siRNA) oligonucleotides for MAT2A and scrambled siRNA were synthesized by the USC Norris Comprehensive Cancer Center Microchemical Core Laboratory, and annealed to form duplexes. Stealth RNAi for MAT2A and Stealth RNAi negative control duplexes were synthesized by Invitrogen (Carlsbad, Calif.). The following siRNA sequences were used: si-MAT2A #1, 5′-[…]-3′ (sense) and 5′-[…]-3′ (antisense); si-control with scrambled sequence (negative control siRNA having no perfect matches to known human genes), 5′-[…]dTdT-3′ (sense) and 5% […]dTdT-3′ (antisense); stealth RNAi-MAT2A #5, 5′-[…]-3′ (sense) and 5′-[…]-3′ (antisense). Transfection was allowed to proceed 72 hours before collection for different assays.
as §2

For test [6], the system named is SPD syn. Put plainly: SPD syn expression by real-time PCR in HT-29 cells. Conditions: 6 hrs, mitogen 100 ng/ml. Type of test: cell-based, human.
Test [7] concerns MAT2β. Put plainly: MAT2β (total, V1, V2) mRNA levels by real-time PCR in RKO cells. Type of test: cell-based, human. Conditions: growth factor 100 ng/ml. The protocol: as §1
as §2, with “The delta Ct obtained was used to find the relative expression of MAT genes according to the formula: Relative expression=2·^ΔCt, where ΔCt=ΔCt of MAT genes in colon cancer or treated cells—ΔCt of MAT genes in normal colon or control cells.” left out
To better understand functional differences between the two MAT2β variants, we created vectors expressing either V1 or V2 using the mammalian expression vector pcDNA3.1D/V5-His/TOPO vector (Invitrogen). […] Cell growth was measured by 3H-thymidine incorporation into DNA. […]

Test [8] has as its system HT-29 cells. Briefly: Cellular SAMe and MTA levels in HT-29 cells. Type of test: cell-based, human. Conditions: mitogen 100 ng/ml. The protocol:
as §1, §3

In test [9] the test system is MAT2β. Put plainly: MAT2β mRNA levels by real-time PCR in HT-29 cells. Conditions: HT29 cells, growth factor 100 ng/ml. Type of test: cell-based, human. The procedure:
as §1, §2

The subject of test [10] is spermine synthase (SPM syn). Put plainly: SPM syn expression by real-time PCR in HT-29 cells. Type of test: cell-based, human. Conditions: 6 hrs, mitogen 100 ng/ml.

In the case of `O=c1[nH]cc(F)c(=O)[nH]1` [5-FU, 5-fluorouracil], in test [1], the TRAIL-induced apoptosis entry is “sensitize colon cancer cells to TRAIL-induced apoptosis”.

For the compound “Leptin: growth factor implicated in colon cancer growth and invasion”, in test [2], the “MAT2A mRNA levels after growth factor” value is on record as “near doubling”. In test [3], this compound displayed a Putrescine of 0.27 ± 0.02 nmol/mg protein, a Spermidine of 2.62 ± 0.02 nmol/mg protein and a Spermine of 14.62 ± 2.70 nmol/mg protein. In addition, in test [4], the ODC expression is given as 1.6 ± 0.09 fold of control. Further, the “MAT2A mRNA levels after growth factor” value in [5] was “near doubling”. The SPD syn expression in test [6] is 2.3 ± 0.25 fold of control. For the same compound, the “MAT2β expression after growth factor” value in test [7] is reported as “not affected”. In addition, in [8] (6 hrs), the MTA level amounted to 0.058 ± 0.010 nmol/mg protein and the SAMe level is reported as 0.48 ± 0.04 nmol/mg protein. In [8] (16 hrs), this compound came in with an MTA level of 0.064 ± 0.015 nmol/mg protein and an SAMe level of 0.63 ± 0.02 nmol/mg protein. Besides, the “MAT2β expression after growth factor” value in test [9] is recorded as “not affected”. For the same compound, the SPM syn expression in test [10] is reported as 1.0 ± 0.05 fold of control.

(Values after US20100166727A1, “S-Adenosylmethionine And Methylthioadensosine In Chemoprevention And Treatment Of Colon Polyps And Cancer” (UNIVERSITY OF SOUTHERN CALIFORNIA, priority 2007, published 2010).)
